Assay results published in ChEMBL document CHEMBL1157089, “Antitrypanosomal cyclic polyketide peroxides from the Australian marine sponge Plakortis sp” (J Nat Prod, 2010).

Key:
HEK293 [1] = experiment: Cytotoxicity against HEK293 cells after 48 hrs by alamar blue assay; assay type: cell-based; settings: Homo sapiens, HEK293, 48 h
[2] = Selectivity ratio of IC50 for HEK293 cells to IC50 for Trypanosoma brucei brucei BS427; assay type: ADME, cell-based; settings: human, read-out: Ratio IC50
[3] = tested on: Trypanosoma brucei brucei; experiment: Antitrypanosomal activity against Trypanosoma brucei brucei BS427 after 48 hrs by alamar blue assay; assay type: functional, organism-based; settings: BS427, 48 h
HEK293 [4] = experiment: Cytotoxicity against HEK293 cells after at 83 uM 48 hrs by alamar blue assay; assay type: cell-based; settings: human, hek293, 48 h

Row | SMILES | IC50 (HEK293 [1]) [nM] | selectivity ratio [2] | IC50 [3] [nM] | Activity (HEK293 [4]) [%]
1 | CC[C@@H](/C=C/C(C)=O)C[C@H](C)C[C@@]1(CC)C[C@@H](CC)[C@@H](CC(=O)O)OO1 | 5.1 | 105 | 49 | 
2 | CC[C@H](C[C@H](C)C[C@@]1(CC)C[C@@H](CC)[C@@H](CC(=O)O)OO1)C(=O)O |  |  | 940 | 100
3 | C=C1CCC[C@@H]2[C@@H](CC[C@@]3(C)CC[C@H]([C@H](C)C(=O)O)OO3)[C@H](C)CC[C@@]12C [SIGMOSCEPTRELLIN B] |  |  | 510 | 
